Measured values as given in article PMC7318646 (Chemmedchem, 2020).

Tests used:
HSA [1] = molecular target: T1, HSA (Homo sapiens, UniProt P02768); assay: Three-dye; type: binding; details: three dyes 8 μM each on HSA 25 μM
HSA [2] = molecular target: T1, HSA; assay: switchSENSE molecular dynamics mode; details: compound concentration tenfold higher than KD

T1 sequence (P02768 25-609): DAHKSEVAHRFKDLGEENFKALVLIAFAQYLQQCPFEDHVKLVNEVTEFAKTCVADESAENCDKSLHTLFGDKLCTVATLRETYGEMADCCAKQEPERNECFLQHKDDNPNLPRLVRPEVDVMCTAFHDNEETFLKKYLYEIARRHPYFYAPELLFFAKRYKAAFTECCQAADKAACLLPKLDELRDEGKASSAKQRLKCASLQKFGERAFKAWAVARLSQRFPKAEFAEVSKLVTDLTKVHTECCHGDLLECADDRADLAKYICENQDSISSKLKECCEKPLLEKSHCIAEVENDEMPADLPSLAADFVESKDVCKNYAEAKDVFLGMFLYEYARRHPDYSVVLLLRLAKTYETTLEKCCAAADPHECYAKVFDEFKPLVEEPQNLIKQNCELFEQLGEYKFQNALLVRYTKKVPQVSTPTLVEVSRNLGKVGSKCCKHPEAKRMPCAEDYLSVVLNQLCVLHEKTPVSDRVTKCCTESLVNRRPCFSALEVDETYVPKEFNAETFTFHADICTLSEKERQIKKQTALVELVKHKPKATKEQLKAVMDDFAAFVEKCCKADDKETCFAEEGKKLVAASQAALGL

Molecule | displacement of dimethylamino-BODIPY 5 a (Sudlow-site II probe) (HSA [1]) | displacement of warfarin derivative 8 a (Sudlow-site I probe) (HSA [1]) | displacement of NBD-FA (fatty acid binding site probe) (HSA [1]) | conformational change of HSA upon binding (molecular dynamics mode) (HSA [2])
CCC(Cc1c(I)cc(I)c(O)c1I)C(=O)O (stereo not drawn) [Iophenoxic acid, iophenoxic acid] | competitive | competitive | – | –
O=C(O)CCNC(=O)c1ccc(/N=N/c2ccc(O)c(C(=O)O)c2)cc1 [balsalazide] | same behavior | same behavior | same behavior | –
(7‐nitrobenz‐2‐oxa‐1,3‐diazol‐4‐yl)‐C12 fatty acid [NBD‐FA] | – | – | – | significant expansion
